The target of data set [1] is T1, human Drp1 isoform 3 (Homo sapiens, UniProt O00429).
T1 construct: His tag; made in house; host or cells: E. coli Rosetta (DE3), pET21b vector
Briefly: Drp1 GTPase activity, colorimetric malachite green assay. It counts as biochemical. How it is done: The GTPase activity of Drp1, which is required for the latter to mediate mitochondrial fission, was examined using the colorimetric GTPase assay kit (Innova Biosciences, Cambridge, UK) according to the manufacturer’s instructions. Compounds were diluted in DMSO (all with a final concentration of 0.1% DMSO). Recombinant human Drp1 protein isoform-3 (final concentration 0.25 ng/µL) was diluted in assay buffer containing 50 mM Tris HCl (pH 7.5) and 2.5 mM MgCl2, followed by incubation with compounds for 15 min at 37 °C in a 96 well plate. 0.5 mM GTP, diluted in assay buffer, was then added into the mixture followed by incubation at 37 °C for 30 min.
Upon binding to Drp1, GTP is hydrolysed into GDP and free phosphate (Pi)[24]. Therefore, the degree of GTPase inhibition was assessed by measuring the concentration of Pi released into the assay buffer, which is detected by a malachite green-based dye. The intensity of Pi-dye complex was assessed by measuring the light absorbance at 635 nm wavelength using a microplate reader (BenchMark Plus, MS, USA). Absorbance of each experimental group was normalised to the vehicle control (DMSO).

The target in data set [2] is T1, human Drp1 isoform 3. Briefly: Surface plasmon resonance (SPR) binding. As to conditions: concentrations as high as 100 µM. How it is done: The recombinant human Drp1 protein (His-tagged human Drp1 isoform 3, kindly provided by Professor Michael Ryan, Monash University, Australia) was generated as described previously. Briefly, cDNA for human Drp1 (isoform 3) was cloned into pET21b vector and transformed in Rosetta (DE3) competent cells (Novagen, MA, Merck Millipore). Transformed cells were propagated in Luria–Bertani broth and protein expression was initiated by the addition of 0.5 mM isopropyl β-D-1-thiogalactopyranoside. […]
All SPR experiments were performed on a Biacore T200 instrument (GE Healthcare Life Sciences, Uppsala, Sweden) at 25 °C in the presence of HEPES buffered saline containing 20 mM phosphate (pH 7.5), 137 mM NaCl, 2.7 mM KCl and 0.05% Tween-20 (HBS + P). […] Sensor surface was activated with 1:1 mixture of 0.4 M EDC and 0.1 M NHS for 7 min, followed by incremental injections of the protein to reach ~ 8000 RU (flow rate 10 μL/minute) for a calculated maximum analyte binding capacity (Rmax) of 30–50 RU. […]
Compounds were dissolved in 100% dimethyl sulfoxide (DMSO) and then added to HBS + P at a final DMSO concentration of 2%. […] SPR results were analysed using the Biacore T200 Evaluation Software v.1.
For orientation: Surface plasmon resonance follows binding to a sensor surface in real time, without labels.

A short description of data set [3]: Dynamic light scattering (DLS) compound aggregation threshold. It counts as physicochemical. How it is done:
Identification of compound aggregation threshold was performed using DLS Zetasizer Nano ZS (Malvern Pananalytical, Worcestershire, UK). 100 µL of samples were measured in low-volume plastic micro cuvettes (BrandTech Scientific, CT, USA) at 25 °C using default size measurement settings. […] Mdivi-1 and DRP1i27 were serially diluted three-fold from 500 µM until the volume distribution of particle size was similar to that of the DMSO control. To specifically determine aggregation threshold, further dilution was carried out between concentrations where aggregation was first observed.

Data set [4] deals with T1, human Drp1 isoform 3. Kind of data set: Microscale thermophoresis (MST) binding. Conditions: human Drp1 isoform 3, 5% DMSO. The procedure: The recombinant human Drp1 protein (His-tagged human Drp1 isoform 3, kindly provided by Professor Michael Ryan, Monash University, Australia) was generated as described previously. Briefly, cDNA for human Drp1 (isoform 3) was cloned into pET21b vector and transformed in Rosetta (DE3) competent cells (Novagen, MA, Merck Millipore). Transformed cells were propagated in Luria–Bertani broth and protein expression was initiated by the addition of 0.5 mM isopropyl β-D-1-thiogalactopyranoside. Cells were harvested by centrifugation at 3,500 g for 20 min at 4 °C, and the pellet was re-suspended in lysis buffer containing 50 mM Tris HCl (pH 7.3), 500 mM NaCl, 50 mM imidazole, 2.5 mM β-mercaptoethanol, 0.01 mM LEUPEP, 0.1 mM AEBSF and 1 mM benzaminidium chloride. The cells were lysed using a pre-cooled EmulsiFlex-C5 homogenizer (Avestin, Ontario, Canada) on ice and clarified by centrifugation at 17,000 g for 30 min. The clarified cell lysate was loaded onto a 5 mL Nickel Chelating Sepharose Fast Flow column (GE Healthcare, Buckinghamshire, UK) and Drp1 protein was eluted with wash buffer containing 50 mM Tris–HCl (pH 7.6), 150 mM NaCl, 2.5 mM β-mercaptoethanol and 400 mM imidazole. […]
Compound binding was assessed in against the human Drp1 isoform-3 protein using MST Monolith NT.115 instrument (NanoTemper Technologies, Mȕnchen, Germany). […]
(In general: Microscale thermophoresis detects binding through changes in fluorescence in a small temperature gradient.)

Data set [5] has as its target human Drp1. On the set-up: method as in PMID 28350990. As to conditions: read-out: inhibitory constant (Ki), GTPase activity of human Drp1; cited from earlier work.
Data set [6] has as its system human iPSC-derived cardiomyocytes. Kind of data set: Doxorubicin-induced cardiomyocyte injury, LDH release. As to conditions: doxorubicin 5 µM alone, 2 days. It counts as cell-based. How it is done: Cardiomyocytes were derived from human induced pluripotent stem cells (iPSCs, CERA007c6 cell line) as previously described with modifications[26],[27]. Briefly, human iPSCs were seeded onto Matrigel (Corning) coated plates at a density of 1.25 × 10^5 cells/cm^2 in TeSR-E8 medium supplemented with 10 μM Y−27632 (Abcam). After 48 h (cells ~ 90% confluent) (day 0), medium was replaced with RPMI-1640 basal medium (Thermo Fisher Scientific) containing B-27 without insulin supplement (Thermo Fisher Scientific), growth factor reduced Matrigel (1:60 dilution) and 10 μM CHIR99021 (Cayman Chemical). At day 1, medium was replaced with RPMI 1640 basal medium containing B-27 without insulin supplement. […]
Enriched cardiomyocytes were replated onto Matrigel-coated 48-well plates at a cell density of 5 × 10^4 cells/cm^2 for 2 days. […] LDH levels in the conditioned media were assessed using a colorimetric CyQUANT LDH Cytotoxicity Assay Kit (Thermo Fisher Scientific) according to manufacturer’s protocol. […] Following the incubation at room temperature for 30 min in the dark, 50 μL of Stop Solution was added and absorbance was measured at 490 nm and 680 nm on a microplate spectrophotometer (Bio-Rad). All readings were then corrected for the background signal from the culture media and expressed as fold change.
A general note: LDH in the medium is a marker of cell lysis.

T1 sequence (O00429 1-699 isoform O00429-4): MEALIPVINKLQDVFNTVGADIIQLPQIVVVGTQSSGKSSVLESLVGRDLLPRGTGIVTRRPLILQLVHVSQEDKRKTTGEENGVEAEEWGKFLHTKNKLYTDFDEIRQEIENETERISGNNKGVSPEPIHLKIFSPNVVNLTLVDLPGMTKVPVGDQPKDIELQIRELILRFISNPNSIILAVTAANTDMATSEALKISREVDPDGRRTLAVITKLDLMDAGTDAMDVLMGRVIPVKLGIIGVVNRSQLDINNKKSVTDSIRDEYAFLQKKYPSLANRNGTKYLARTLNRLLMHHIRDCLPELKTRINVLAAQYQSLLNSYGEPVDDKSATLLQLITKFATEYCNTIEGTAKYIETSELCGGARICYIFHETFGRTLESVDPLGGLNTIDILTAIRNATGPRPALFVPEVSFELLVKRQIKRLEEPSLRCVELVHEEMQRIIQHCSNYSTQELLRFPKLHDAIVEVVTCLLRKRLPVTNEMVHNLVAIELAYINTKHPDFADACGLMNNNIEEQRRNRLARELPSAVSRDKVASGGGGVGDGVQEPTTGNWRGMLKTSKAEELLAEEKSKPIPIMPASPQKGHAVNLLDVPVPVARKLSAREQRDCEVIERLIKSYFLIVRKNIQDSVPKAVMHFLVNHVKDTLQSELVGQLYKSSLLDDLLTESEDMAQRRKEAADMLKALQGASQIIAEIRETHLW

`COc1cc(-n2c(=S)[nH]c3ccccc3c2=O)c(Cl)cc1Cl` [Mdivi-1]: the entries for the “inhibition of GTPase activity of human Drp1” value in data set [1] (5 µM) and in data set [1] (increasing concentration above 5 µM) were “significant inhibition” and “not observed”, respectively. For the same molecule, in data set [2], the SPR binding response entry is “no binding response”. Further, the aggregation threshold in data set [3] (2% DMSO with 0.05% Tween-20) amounted to 70 µM; in data set [3] (5% DMSO with 0.05% Tween-20), 18.5 µM; in data set [3] (PBS, 2% DMSO), 20 µM; in data set [3] (PBS, 5% DMSO), 35 µM. The “concentrations at which the compound aggregated” value in data set [3] (assay buffer containing DMSO and Tween-20) is “above 18.5 µM”. The Kd in data set [4] came to 0.23 µM. Moreover, the inhibition constant (Ki) in data set [5] was above 1200 µM.

Consider `COc1cccc2c1C(=O)c1c(O)c3c(c(O)c1C2=O)C[C@@](O)(C(=O)CO)C[C@@H]3O[C@H]1C[C@H](N)[C@H](O)[C@H](C)O1` [doxorubicin, reference compound], for which, in data set [6], the LDH release came to 3.41 ± 0.11 fold change.

In general, Kd refers to the concentration at which binding is half-saturated. A higher Kd goes with a looser complex. As a reminder, the Ki is the equilibrium dissociation constant of an inhibitor or competing ligand from its target.
